The structures appear in SMILES notation. Read-outs that look alike come from different tables or passages of the source.

Consider 16 molecules from US20200390899A1, “AMINOBENZAZEPINE COMPOUNDS, IMMUNOCONJUGATES, AND USES THEREOF” (BOLT BIOTHERAPEUTICS, INC., priority 2019, published 2020).

Assay [1] deals with T1, human TLR7 (Homo sapiens, UniProt Q9NYK1).
T1 construct: host or cells: HEK293 reporter cells
T1 sequence (Q9NYK1 27-1049): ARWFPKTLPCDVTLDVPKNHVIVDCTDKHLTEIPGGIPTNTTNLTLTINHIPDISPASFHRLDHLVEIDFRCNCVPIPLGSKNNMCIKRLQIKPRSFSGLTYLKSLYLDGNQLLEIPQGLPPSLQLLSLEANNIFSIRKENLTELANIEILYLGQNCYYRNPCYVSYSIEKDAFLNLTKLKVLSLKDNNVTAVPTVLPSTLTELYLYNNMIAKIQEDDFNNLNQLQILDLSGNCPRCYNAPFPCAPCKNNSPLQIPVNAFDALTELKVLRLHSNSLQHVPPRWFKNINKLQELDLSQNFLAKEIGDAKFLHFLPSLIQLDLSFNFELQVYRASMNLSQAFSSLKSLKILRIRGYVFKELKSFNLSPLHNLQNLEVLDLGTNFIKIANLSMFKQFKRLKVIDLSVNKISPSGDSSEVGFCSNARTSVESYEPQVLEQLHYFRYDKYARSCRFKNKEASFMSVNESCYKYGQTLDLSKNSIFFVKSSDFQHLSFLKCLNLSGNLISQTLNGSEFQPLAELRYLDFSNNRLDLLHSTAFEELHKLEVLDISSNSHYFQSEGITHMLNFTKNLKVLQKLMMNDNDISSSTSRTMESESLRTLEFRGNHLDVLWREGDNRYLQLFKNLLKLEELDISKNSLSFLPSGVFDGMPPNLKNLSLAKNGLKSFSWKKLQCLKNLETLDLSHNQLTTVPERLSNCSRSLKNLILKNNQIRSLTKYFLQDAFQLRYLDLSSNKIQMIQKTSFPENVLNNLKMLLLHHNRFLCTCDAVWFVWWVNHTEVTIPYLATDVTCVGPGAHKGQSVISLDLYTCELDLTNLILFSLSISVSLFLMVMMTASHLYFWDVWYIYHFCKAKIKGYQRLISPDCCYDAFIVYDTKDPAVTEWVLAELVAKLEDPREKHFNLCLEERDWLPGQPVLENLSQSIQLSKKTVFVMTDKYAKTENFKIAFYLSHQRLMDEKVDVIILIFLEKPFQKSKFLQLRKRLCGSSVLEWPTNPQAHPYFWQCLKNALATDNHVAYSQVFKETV
The assay can be described thus: HEK293 NFKB reporter assay, human TLR7. Type of assay: cell-based. To be noted: HEK293 reporter cells expressing human TLR7, read-out: HEK293 hTLR7 EC50. The method, then: (§1) Each compound was synthesized and purified by the methods in the Examples provided herein, characterized by mass spectrometry, and shown to have the mass indicated. Activity against HEK293 NFKB reporter cells expressing human TLR7 or human TLR8 was measured according to Example 68.
(§2) HEK293 reporter cells expressing human TLR7 or human TLR8 were purchased from Invivogen and vendor protocols were followed for cellular propagation and experimentation. Briefly, cells were grown to 80-85% confluence at 5% CO2 in DMEM supplemented with 10% FBS, Zeocin, and Blasticidin. Cells were then seeded in 96-well flat plates at 4×10^4cells/well with substrate containing HEK detection medium and immunostimulatory molecules. Activity was measured using a plate reader at 620-655 nm wavelength.

Assay [2] has as its target T2, human TLR8 (Homo sapiens, UniProt Q9NR97).
T2 construct: host or cells: HEK293 reporter cells
T2 sequence (Q9NR97 27-1041): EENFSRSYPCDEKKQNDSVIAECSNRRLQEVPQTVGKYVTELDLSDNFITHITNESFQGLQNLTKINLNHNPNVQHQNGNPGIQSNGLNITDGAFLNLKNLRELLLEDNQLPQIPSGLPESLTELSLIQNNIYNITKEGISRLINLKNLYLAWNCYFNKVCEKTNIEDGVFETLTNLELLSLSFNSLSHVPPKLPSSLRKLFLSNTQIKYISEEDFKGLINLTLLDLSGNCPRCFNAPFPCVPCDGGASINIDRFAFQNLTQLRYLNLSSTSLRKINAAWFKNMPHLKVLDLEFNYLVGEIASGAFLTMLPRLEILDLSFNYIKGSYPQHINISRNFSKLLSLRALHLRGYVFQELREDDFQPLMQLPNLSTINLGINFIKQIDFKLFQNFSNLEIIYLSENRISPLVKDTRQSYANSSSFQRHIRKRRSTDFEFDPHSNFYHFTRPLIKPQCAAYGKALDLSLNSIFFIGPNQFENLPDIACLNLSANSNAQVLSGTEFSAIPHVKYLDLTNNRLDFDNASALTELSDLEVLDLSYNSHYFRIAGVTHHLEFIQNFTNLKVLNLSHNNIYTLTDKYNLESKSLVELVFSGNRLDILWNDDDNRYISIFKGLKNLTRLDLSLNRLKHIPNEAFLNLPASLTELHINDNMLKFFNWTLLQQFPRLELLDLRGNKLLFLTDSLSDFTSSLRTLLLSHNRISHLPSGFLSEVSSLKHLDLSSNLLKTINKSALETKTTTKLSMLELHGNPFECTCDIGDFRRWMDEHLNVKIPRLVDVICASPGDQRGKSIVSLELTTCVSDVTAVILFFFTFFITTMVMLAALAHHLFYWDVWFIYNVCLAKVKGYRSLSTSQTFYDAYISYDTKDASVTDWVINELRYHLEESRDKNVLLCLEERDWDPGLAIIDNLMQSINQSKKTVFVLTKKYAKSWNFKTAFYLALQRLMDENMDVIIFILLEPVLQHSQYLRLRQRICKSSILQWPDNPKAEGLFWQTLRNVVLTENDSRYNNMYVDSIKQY
The assay can be described thus: HEK293 NFKB reporter assay, human TLR8. To be noted: HEK293 reporter cells expressing human TLR8, read-out: HEK293 hTLR8 EC50. Type of assay: cell-based. The method, then:
as §1, §2

Usually EC50 stands for the midpoint of the concentration-response curve. On to `CCCN(CCC(F)(F)F)C(=O)C1=Cc2ccc(-c3cccc(S(=O)(=O)N4CC(CO)C4)c3)cc2N=C(N)C1` [Bz-47], for which the EC50 in assay [1] (Table 1c) is ≥ 9000 nM; in assay [2] (Table 1c) it was 341 nM.
Turning to `CCCN(CCCOCCOCCN)C(=O)C1=Cc2ccc(-c3cccc(S(=O)(=O)N4CC(CO)C4)c3)cc2N=C(N)C1` [Bz-21, 2-amino-N-(3-(2-(2-aminoethoxy)ethoxy)propyl)-8-(3-((3-(hydroxymethyl)azetidin-1-yl)sulfonyl)phenyl)-N-propyl-3H-benzo[b]azepine-4-carboxamide], the EC50 in assay [1] (Table 1b) and in assay [2] (Table 1b) was > 9000 nM each time.
As to `CCCN(Cc1ccc(CN)cc1)C(=O)C1=Cc2ccc(-c3cccc(S(=O)(=O)N4CC(CO)C4)c3)cc2N=C(N)C1` [Bz-27, 2-Amino-N-(4-(aminomethyl)benzyl)-8-(3-((3-(hydroxymethyl)azetidin-1-yl)sulfonyl)phenyl)-N-propyl-3H-benzo[b]azepine-4-carboxamide], the EC50 is > 9000 nM in assay [1] (Table 1b) and 138 nM in assay [2] (Table 1b).
On to `CCCN(CCCNC(=O)OC(C)(C)C)C(=O)C1=Cc2ccc(-c3cccc(S(=O)(=O)N4CC(CO)C4)c3)cc2N=C(N)C1` [Bz-1, tert-butyl N-[3-[[2-amino-8-[3-[3-(hydroxymethyl)azetidin-1-yl]sulfonylphenyl]-3H-1-benzazepine-4-carbonyl]-propyl-amino]propyl]carbamate], for which the results for the EC50 in assay [1] (Table 1a) and in assay [2] (Table 1a) were 571 nM and 106 nM, respectively.
Take `CCCN(CCCNC(=O)c1ccc(OCC)cc1)C(=O)C1=Cc2ccc(C(=O)Nc3ccccc3)cc2N=C(N)C1` [Bz-34, 2-amino-N^4-(3-(4-ethoxybenzamido)propyl)-N^8-phenyl-N^4-propyl-3H-benzo[b]azepine-4,8-dicarboxamide]: the results for the EC50 in assay [1] (Table 1b) and in assay [2] (Table 1b) were > 9000 nM and 1040 nM, respectively.
Taken in the same sequence, the figures for `CCCN(CCCNc1ncccn1)C(=O)C1=Cc2ccc(-c3cccc(S(=O)(=O)N4CC(CO)C4)c3)cc2N=C(N)C1` [Bz-23, 2-amino-8-[3-[3-(hydroxymethyl)azetidin-1-yl]sulfonylphenyl]-N-propyl-N-[3-(pyrimidin-2-ylamino)propyl]-3H-1-benzazepine-4-carboxamide] were 2430 nM and 1160 nM.
As to `CCCN(CCc1ccc(OC)cc1)C(=O)C1=Cc2ccc(-c3cccc(S(=O)(=O)N4CC(CN(C)C)C4)c3)cc2N=C(N)C1` [Bz-76], the figures for the EC50 in assay [1] (Table 1c) and in assay [2] (Table 1c) were 969 nM and 786 nM, respectively.
On to `CCCN(CCC)C(=O)C1=Cc2c(CCCCNC(=O)OC(C)(C)C)cc(-c3cccc(S(=O)(=O)N4CC(CO)C4)c3)cc2N=C(N)C1` [Bz-5, tert-butyl (4-(2-amino-4-(dipropylcarbamoyl)-8-(3-((3-(hydroxymethyl)azetidin-1-yl)sulfonyl)phenyl)-3H-benzo[b]azepin-6-yl)butyl)carbamate], for which the EC50 turned out to be 155 nM in assay [1] (Table 1a) and 256 nM in assay [2] (Table 1a).
In the case of `CCCN(CC#CCNC(=O)OC(C)(C)C)C(=O)C1=Cc2ccc(-c3cccc(S(=O)(=O)N4CC(CO)C4)c3)cc2N=C(N)C1` [Bz-26, tert-butyl N-[4-[[2-amino-8-[3-[3-(hydroxymethyl)azetidin-1-yl]sulfonylphenyl]-3H-1-benzazepine-4-carbonyl]-propyl-amino]but-2-ynyl]carbamate], the results for the EC50 in assay [1] (Table 1b) and in assay [2] (Table 1b) were > 9000 nM and 318 nM, respectively.
Turning to `CCCN(CCC)C(=O)C1=Cc2ccc(C(=O)Nc3cncc(CNC(=O)OC(C)(C)C)c3)cc2N=C(N)C1` [Bz-7], the EC50 in assay [1] (Table 1a) is > 9000 nM; in assay [2] (Table 1a), 4.28 nM.
In the case of `CCCN(OCC)C(=O)C1=Cc2ccc(-c3cccc(S(=O)(=O)N4CC(CN(C)C)C4)c3)cc2N=C(N)C1` [Bz-63], the EC50 in assay [1] (Table 1c) was determined as 1270 nM; in assay [2] (Table 1c), 8 nM.
For `CCCN(CCCN(C)C(=O)OC(C)(C)C)C(=O)C1=Cc2ccc(-c3cccc(S(=O)(=O)N4CC(CO)C4)c3)cc2N=C(N)C1` [Bz-3, tert-butyl (3-(2-amino-8-(3-((3-(hydroxymethyl)azetidin-1-yl)sulfonyl)phenyl)-N-propyl-3H-benzo[b]azepine-4-carboxamido)propyl)(methyl)carbamate], the EC50 in assay [1] (Table 1a) worked out at 545 nM; in assay [2] (Table 1a) it was 4310 nM.
As for `CCCN(CCCNC(=O)c1ccc(OCC)cc1)C(=O)C1=Cc2ccc(-c3cccc(S(=O)(=O)N4CC(CO)C4)c3)cc2N=C(N)C1` [Bz-33, 2-amino-N-(3-(4-ethoxybenzamido)propyl)-8-(3-((3-(hydroxymethyl)azetidin-1-yl)sulfonyl)phenyl)-N-propyl-3H-benzo[b]azepine-4-carboxamide], the figures for the EC50 in assay [1] (Table 1b) and in assay [2] (Table 1b) were 1430 nM and 1920 nM, respectively.
On to `CCCN(CCC)C(=O)C1=Cc2ccc(-c3cccc(S(=O)(=O)N4CC(CNC(=O)OC(C)(C)C)C4)c3)cc2N=C(N)C1` [Bz-6, tert-butyl ((1-((3-(2-amino-4-(dipropylcarbamoyl)-3H-benzo[b]azepin-8-yl)phenyl)sulfonyl)azetidin-3-yl)methyl)carbamate], for which the values for the EC50 in assay [1] (Table 1a) and in assay [2] (Table 1a) were > 9000 nM and 265 nM, respectively.
`CCCN(CCc1ccc(OC)cc1)C(=O)C1=Cc2ccc(-c3cccc(S(=O)(=O)N4CC(CO)C4)c3)cc2N=C(N)C1` [Bz-25, 2-amino-8-[3-[3-(hydroxymethyl)azetidin-1-yl]sulfonylphenyl]-N-[2-(4-methoxyphenyl)ethyl]-N-propyl-3H-1-benzazepine-4-carboxamide]: the EC50 in assay [1] (Table 1b) is > 9000 nM; in assay [2] (Table 1b), 1400 nM.
As to `CCCN(CCCNC(=O)OC(C)(C)C)C(=O)C1=Cc2ccc(-c3ccc(C(=O)N4CCCC4)cc3)cc2N=C(N)C1` [Bz-4], the EC50 in assay [1] (Table 1a) was found to be 1480 nM; in assay [2] (Table 1a), 1680 nM.
